Measurements taken from patent publication US8927489B2, “Sustained release preparation of pro-insulin C-peptide” (Cebix Incorporated, priority 2005, dated 2015).

Legend:
[1] = cited from earlier work
[2] = Subcutaneous administration of C-peptide formulations in rats: C-peptide in serum; format: in vivo, Sprague-Dawley male rats; settings: rat, sc, 75 nmole/kg as a common aqueous solution, within 2 h, data not shown, read-out: serum concentration of C-peptide
Description: About 1 ml of each sample was transferred to a plastic syringe with a Luer-lok Tip (Becton Dickinson), which then was sealed with a Combi Stopper (Braun). Prior to administration a 23G Microlance (Becton Dickinson) was connected to the syringe. Each syringe was weighed before and after administration to the animal.
Thirty Sprague-Dawley male rats with a body weight of about 300 g were divided into 5 groups of 6 animals to test the uptake of C-peptide in the formulations outlined above. […] The serum obtained by centrifugation was collected and stored at −80° C. until analysis. Determination of C-peptide in serum was performed by an automatic immunoassay system (AutoDELFIA™ C-peptide, Perkin Elmer, Wallac Oy, Turku, Finland), with a detection limit of 0.005 nM and a precision below 5%. To fit into the calibration curve, the samples were diluted prior to analysis 100 times.

[3] = dose injected into a rat; cited from earlier work

For `CC(C)C[C@H](NC(=O)[C@H](C)NC(=O)[C@H](CC(C)C)NC(=O)[C@@H]1CCCN1C(=O)[C@H](CCC(N)=O)NC(=O)[C@H](CC(C)C)NC(=O)[C@H](CO)NC(=O)CNC(=O)[C@H](C)NC(=O)CNC(=O)[C@@H]1CCCN1C(=O)CNC(=O)CNC(=O)CNC(=O)[C@H](CC(C)C)NC(=O)[C@H](CCC(=O)O)NC(=O)[C@@H](NC(=O)[C@H](CCC(N)=O)NC(=O)CNC(=O)[C@@H](NC(=O)[C@H](CCC(N)=O)NC(=O)[C@H](CC(C)C)NC(=O)[C@H](CC(=O)O)NC(=O)[C@H](CCC(=O)O)NC(=O)[C@H](C)NC(=O)[C@@H](N)CCC(=O)O)C(C)C)C(C)C)C(=O)N[C@@H](CCC(=O)O)C(=O)NCC(=O)N[C@@H](CO)C(=O)N[C@@H](CC(C)C)C(=O)N[C@@H](CCC(N)=O)C(=O)O` [C-peptide, proinsulin C-peptide], which “in vivo half life circulating in blood” value [1] is on record?
The value was “approximately 30 minutes”.

What about the level at time molar [2] of the same compound?
Its level at time molar is < 1 nM.

And the “time within which an injected dose has disappeared entirely from circulation” value [3]?
Its value is 2 to 3 h.
